Data as given in ChEMBL document CHEMBL1201862, “PubChem BioAssay data set” (2004).
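In this assay, cells in 96-well plates receive the compound at five concentrations for 48 hours. Endpoints are linearly interpolated between the surrounding concentrations. Here, GI50 denotes the concentration required for 50% inhibition of growth.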 Calls of active or inactive are those of the source. No stated cut-off is given here; in the data, active = GI50 up to about 1.1 µM and inactive = higher.

Tests used:
Experiment in all cases: DTP human tumour cell line panel, 48 h
A498 = system: A498
ACHN = system: ACHN
HOP-62 = system: HOP-62
HT-29 = system: HT-29
Malme-3M = system: Malme-3M
NCI-H23 = system: NCI-H23
OVCAR-3 = system: OVCAR-3
SF-295 = system: SF-295
SF-539 = system: SF-539
SK-MEL-28 = system: SK-MEL-28
SK-MEL-2 = system: SK-MEL-2
SW-620 = system: SW-620
U-251 = system: U-251
UO-31 = system: UO-31
NCI-H226 = system: NCI-H226
IGROV-1 = system: IGROV-1

| SMILES | GI50 (A498) | GI50 (ACHN) | GI50 (HOP-62) | GI50 (HT-29) | GI50 (Malme-3M) | GI50 (NCI-H23) | GI50 (OVCAR-3) | GI50 (SF-295) | GI50 (SF-539) | GI50 (SK-MEL-28) | GI50 (SK-MEL-2) | GI50 (SW-620) | GI50 (U-251) | GI50 (UO-31) | GI50 (NCI-H226) | GI50 (IGROV-1) |
| --- | --- | --- | --- | --- | --- | --- | --- | --- | --- | --- | --- | --- | --- | --- | --- | --- |
| COc1cc2c(cc1OC)C1Cc3ccc(OC)c(OC)c3C[N+]1([O-])CC2 (stereo not drawn) | > 100 µM (inactive) | > 100 µM (inactive) | > 100 µM (inactive) | > 100 µM (inactive) | > 100 µM (inactive) | > 100 µM (inactive) | > 100 µM (inactive) | > 100 µM (inactive) | > 100 µM (inactive) | > 100 µM (inactive) | > 100 µM (inactive) | > 100 µM (inactive) | > 100 µM (inactive) | > 100 µM (inactive) |  |  |
| COC1=NCc2ccccc2-c2ccccc21 |  | > 100 µM (inactive) |  | > 100 µM (inactive) | > 100 µM (inactive) | > 100 µM (inactive) | > 100 µM (inactive) | > 100 µM (inactive) | > 100 µM (inactive) | > 100 µM (inactive) | > 100 µM (inactive) |  | > 100 µM (inactive) | 20.2 µM (inactive) | > 100 µM (inactive) |  |
| C=CCn1c(=O)n(CC=C)c(=O)n(CC=C)c1=O | > 100 µM (inactive) | > 100 µM (inactive) | > 100 µM (inactive) |  | > 100 µM (inactive) | > 100 µM (inactive) | > 100 µM (inactive) | > 100 µM (inactive) | > 100 µM (inactive) | > 100 µM (inactive) | > 100 µM (inactive) | > 100 µM (inactive) | > 100 µM (inactive) | > 100 µM (inactive) |  | > 100 µM (inactive) |
| O=C(n1c2ccccc2c2nnc(S)nc21)C(F)(F)F |  |  | > 100 µM (inactive) | > 100 µM (inactive) | > 100 µM (inactive) | > 100 µM (inactive) | > 100 µM (inactive) | > 100 µM (inactive) | > 100 µM (inactive) | 60.5 µM (inactive) | > 10 µM (inactive) | > 100 µM (inactive) | > 100 µM (inactive) | > 100 µM (inactive) | > 100 µM (inactive) | > 100 µM (inactive) |
| CC(C)N(C(=O)C12C3C4C5(C(=O)O)C(C1C35I)C42C(=O)O)C(C)C (stereo not drawn) | > 100 µM (inactive) | > 100 µM (inactive) | > 100 µM (inactive) | > 100 µM (inactive) | > 100 µM (inactive) | > 100 µM (inactive) | > 100 µM (inactive) | > 100 µM (inactive) | > 100 µM (inactive) | > 100 µM (inactive) |  | > 100 µM (inactive) | > 100 µM (inactive) | > 100 µM (inactive) | > 100 µM (inactive) | > 100 µM (inactive) |
| CC1(C2CCC3(C)OC3C2)CO1 (stereo not drawn) |  | > 100 µM (inactive) | > 100 µM (inactive) | > 100 µM (inactive) | > 100 µM (inactive) | > 100 µM (inactive) | > 100 µM (inactive) | > 100 µM (inactive) | > 100 µM (inactive) | > 100 µM (inactive) | > 100 µM (inactive) | > 100 µM (inactive) | > 100 µM (inactive) | > 100 µM (inactive) | > 100 µM (inactive) | > 100 µM (inactive) |
| COc1cccc(/C=N/[N-]C(=S)Nc2ccccc2)c1[O-].O.[Zn+2] |  | 39.8 µM (inactive) | 17 µM (inactive) | 72.4 µM (inactive) | 86.5 µM (inactive) | 37.7 µM (inactive) | 40.5 µM (inactive) | 76.7 µM (inactive) | 66.4 µM (inactive) | > 100 µM (inactive) | 63.7 µM (inactive) | 56.4 µM (inactive) | 60.4 µM (inactive) | 33.6 µM (inactive) | 37.8 µM (inactive) | 52 µM (inactive) |
| Clc1ccc(C(n2cc(Br)cn2)n2cc(Br)cn2)cc1 | 18.3 µM (inactive) | 14.5 µM (inactive) | 17.8 µM (inactive) | 13.2 µM (inactive) | 15.8 µM (inactive) | 17.9 µM (inactive) | 14.1 µM (inactive) | 15 µM (inactive) | > 10 µM (inactive) | 17.8 µM (inactive) | 16.8 µM (inactive) | 17 µM (inactive) | 16.3 µM (inactive) | 0.267 µM (active) | 8.91 µM (inactive) | 18.7 µM (inactive) |
| CCOP(=S)(OCC)Oc1ccc2c(c1)OC(=O)C1(Cl)C2(C)C2(Cl)C(=O)Oc3cc(OP(=S)(OCC)OCC)ccc3C12C (stereo not drawn) | 25.5 µM (inactive) | 22.4 µM (inactive) | 18.3 µM (inactive) | 15.5 µM (inactive) | 22.6 µM (inactive) | > 10 µM (inactive) | 14.6 µM (inactive) | 14.7 µM (inactive) | 11.1 µM (inactive) | 16.5 µM (inactive) | 20.4 µM (inactive) | 16.7 µM (inactive) | 6.35 µM (inactive) | 17.9 µM (inactive) | 15.1 µM (inactive) | 17.3 µM (inactive) |
| Cc1cc2c(cn1)C(=O)OCC2 | > 100 µM (inactive) | > 100 µM (inactive) | > 100 µM (inactive) | > 100 µM (inactive) | > 100 µM (inactive) | > 100 µM (inactive) | > 100 µM (inactive) | > 100 µM (inactive) | > 100 µM (inactive) | > 100 µM (inactive) |  | > 100 µM (inactive) | > 100 µM (inactive) | > 100 µM (inactive) | > 100 µM (inactive) | > 100 µM (inactive) |
| Oc1ccc2ccccc2c1/N=N/c1ccsc1 | > 100 µM (inactive) | > 100 µM (inactive) | > 100 µM (inactive) | 66.8 µM (inactive) | > 100 µM (inactive) | > 100 µM (inactive) | > 100 µM (inactive) | > 100 µM (inactive) | > 100 µM (inactive) | > 100 µM (inactive) | > 100 µM (inactive) | > 100 µM (inactive) | > 100 µM (inactive) | > 100 µM (inactive) | > 100 µM (inactive) | > 100 µM (inactive) |
| Cc1ccc(-n2c3nc(=O)n(C)c(=O)c-3nc3ccccc32)c(C)c1 | > 10 µM (inactive) | 3.58 µM (inactive) | 24.3 µM (inactive) | 3.28 µM (inactive) | 3.92 µM (inactive) | 1.9 µM (inactive) | 2.5 µM (inactive) | 10.7 µM (inactive) | 13.2 µM (inactive) |  | 12.9 µM (inactive) | 5.57 µM (inactive) | 15.8 µM (inactive) | 24.3 µM (inactive) | 14.9 µM (inactive) | 15.1 µM (inactive) |
| COC(=O)c1nn(C(=N)c2ccc(Cl)cc2)c2c1CCCCC2 | > 100 µM (inactive) | > 100 µM (inactive) | > 100 µM (inactive) | > 100 µM (inactive) | > 100 µM (inactive) | > 100 µM (inactive) |  | > 100 µM (inactive) | > 100 µM (inactive) | > 100 µM (inactive) | > 100 µM (inactive) | > 100 µM (inactive) | > 100 µM (inactive) | > 100 µM (inactive) | > 100 µM (inactive) | > 100 µM (inactive) |
| CC12C(=CC(=O)CC1SCCS(=O)(=O)O)C(C#N)=C(N)N2c1ccc(Cl)c(Cl)c1 (stereo not drawn) | > 100 µM (inactive) | > 100 µM (inactive) | > 100 µM (inactive) | > 100 µM (inactive) |  | > 100 µM (inactive) | > 100 µM (inactive) | > 100 µM (inactive) | > 100 µM (inactive) | > 100 µM (inactive) | > 100 µM (inactive) | 78.9 µM (inactive) | > 100 µM (inactive) | > 100 µM (inactive) | > 100 µM (inactive) | > 100 µM (inactive) |
| CN(C)NC(=O)NC12CC3CC(CC(C3)C1)C2 | > 100 µM (inactive) | > 100 µM (inactive) |  | > 100 µM (inactive) |  | > 100 µM (inactive) |  | > 100 µM (inactive) | > 100 µM (inactive) | > 10 µM (inactive) | > 100 µM (inactive) | > 100 µM (inactive) | > 100 µM (inactive) | > 100 µM (inactive) | > 100 µM (inactive) | > 100 µM (inactive) |
| CN(C)C(=S)/N=c1\ss/c(=N\S(=O)(=O)c2ccccc2)n1N(C)C | > 100 µM (inactive) | > 100 µM (inactive) | > 100 µM (inactive) |  | > 100 µM (inactive) |  | > 100 µM (inactive) |  | > 100 µM (inactive) | > 100 µM (inactive) | > 100 µM (inactive) | > 100 µM (inactive) | > 100 µM (inactive) | > 100 µM (inactive) | > 100 µM (inactive) | > 100 µM (inactive) |
| O=C(/C=C/c1ccc([N+](=O)[O-])cc1)c1ccc(NCc2nc3ccccc3[nH]2)cc1 | 7.24 µM (inactive) | 10.5 µM (inactive) | 10 µM (inactive) | 3.44 µM (inactive) | 14.2 µM (inactive) | 3.75 µM (inactive) | 3.09 µM (inactive) | 3.86 µM (inactive) | 2.84 µM (inactive) | 13 µM (inactive) | 14.9 µM (inactive) | 2.25 µM (inactive) | 1.75 µM (inactive) | 4.98 µM (inactive) |  | 4.48 µM (inactive) |
| COC(=O)[C@H]1C=C[C@@H](C)n2c(=O)c3cc4ccccc4cc3c(=O)n21 | > 100 µM (inactive) | > 100 µM (inactive) | > 100 µM (inactive) |  | > 100 µM (inactive) | > 100 µM (inactive) | > 100 µM (inactive) | > 100 µM (inactive) | > 100 µM (inactive) | > 100 µM (inactive) | > 100 µM (inactive) | > 100 µM (inactive) | > 100 µM (inactive) | > 100 µM (inactive) | > 100 µM (inactive) | > 100 µM (inactive) |
